Patent publication US20100256160A1, “METHOD OF ADMINISTERING AN ANTITUMOR COMPOUND” (NERVIANO MEDICAL SCIENCES S.R.L., priority 2006, published 2010)

What was measured:
[1] = Pharmacokinetics in phase I trial, 24 hours iv infusion once every two weeks; format: in vivo, human; conditions: patients
Protocol: (§1) A phase I pharmacological trial was carried out to investigate the iv administration of Compound 1 given in 24 hours infusion once every two weeks in patients with refractory or resistant solid tumours, including lung, colorectal, gastro-oesophageal, cervix, Ewing, renal, head and neck, mesothelioma and cancer of unknown primary.
Neutropenia was the dose-limiting toxicity for Compound 1 and easily managed. […] Biomarker modulation occurred at ≧500 mg/m^2. […] The recommended dose for Phase II was 500 mg/m^2. Furthermore the protocol was amended to increase the dose up to 750 mg/m^2 with prophylactic treatment with G-CSF.

[2] = tested on: patients with advanced/metastatic solid tumors; assay: Two-center phase I dose escalation trial, 6-hours IV infusion weekly for 3 consecutive weeks in a 28-day cycle; format: in vivo
Protocol: The infusion duration was selected to reduce the potential for Cmax related toxicities. Forty patients were treated with doses ranging from 45 to 400 mg/m^2. […] In order to define the recommended dose for phase II, 330 mg/m^2 dose level was investigated.

[3] = tested on: patients with refractory or resistant solid tumours; assay: Phase I dose escalation trial, 24 hours iv infusion once every two weeks: toxicity and response; format: in vivo
Protocol: as §1
This was a dose escalation study. Cohorts of 3-6 patients were sequentially allotted to progressively higher dose levels (DL) of Compound 1 based on the number of dose limiting toxicities (DLTs) observed. As per protocol, definition of DLTs were grade (G) 4 neutropenia lasting >7 days, febrile neutropenia, neutropenic infection, any G3 or 4 non-hematological drug related toxicities during the first cycle of treatment.
(§2) Forty patients were enrolled. Seven DLs were explored (45, 90, 180, 360, 500, 650 and 580 mg/m^2). […] Except one G3 diarrhea, pyrexia and fatigue in one patient each, all other drug related non-hematological adverse events were G1 or 2 (fatigue, anorexia, nausea, vomiting, and ejection fraction decreased). One DLT (neutropenic infection) in the 360 mg/m^2, 2 DLTs (neutropenic infection and febrile neutropenia) at DL 650 mg/m^2 and 2 DLTs at 580 mg/m^2 (G 3 liver enzyme increase and febrile neutropenia) were reported. The MTD has been exceeded at 650 and 580 mg/m^2.

Aurora kinases (AKs) A = biological target: T1, Aurora kinases (AKs) A (Homo sapiens, UniProt O14965); assay: Inhibitory potency towards Aurora kinase A; format: biochemical
T1 sequence (O14965 1-403): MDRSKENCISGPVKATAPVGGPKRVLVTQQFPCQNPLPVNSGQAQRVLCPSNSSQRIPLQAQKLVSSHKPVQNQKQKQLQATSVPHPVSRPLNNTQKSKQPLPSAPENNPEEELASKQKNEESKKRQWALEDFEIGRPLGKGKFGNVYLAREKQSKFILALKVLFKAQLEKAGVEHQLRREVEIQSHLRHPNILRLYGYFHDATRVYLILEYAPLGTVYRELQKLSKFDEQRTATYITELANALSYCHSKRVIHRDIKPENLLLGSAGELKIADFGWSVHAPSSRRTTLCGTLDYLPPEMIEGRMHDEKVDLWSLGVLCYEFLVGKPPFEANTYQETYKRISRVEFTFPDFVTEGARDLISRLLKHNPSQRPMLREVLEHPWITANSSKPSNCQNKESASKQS

[4] = tested on: patients with hematopoietic malignancies such as relapsed/refractory acute leukemia; assay: Phase I study, 3-hour intravenous infusion for three consecutive days every two weeks; format: in vivo, human; conditions: 100, 150, 210, and 280 mg/m^2/daily; ten patients
Protocol: A phase I pharmacological study to investigate the iv administration of Compound 1 given in a 3-hour intravenous infusion for three consecutive days every two weeks in patients with hematopoietic malignancies such as relapsed/refractory acute leukemia. Ten patients have been enrolled in 4 dose levels (100, 150, 210, and 280 mg/m^2/daily). […] Dose escalation is still proceeding.

[5] = tested on: histone H3 phosphorylation; assay: Histone H3 phosphorylation in skin biopsies of patients, phase I trial 24 hours infusion; format: in vivo, human; conditions: 24 h iv infusion
Protocol: as §1, §2

Aurora kinases (AKs) B = Aurora kinases (AKs) B (Homo sapiens, UniProt Q96GD4); assay: Inhibitory potency towards Aurora kinase B; format: biochemical
Aurora kinases (AKs) C = biological target: T2, Aurora kinases (AKs) C (Homo sapiens, UniProt Q9UQB9); assay: Inhibitory potency towards Aurora kinase C; format: biochemical
T2 sequence (Q9UQB9 1-309): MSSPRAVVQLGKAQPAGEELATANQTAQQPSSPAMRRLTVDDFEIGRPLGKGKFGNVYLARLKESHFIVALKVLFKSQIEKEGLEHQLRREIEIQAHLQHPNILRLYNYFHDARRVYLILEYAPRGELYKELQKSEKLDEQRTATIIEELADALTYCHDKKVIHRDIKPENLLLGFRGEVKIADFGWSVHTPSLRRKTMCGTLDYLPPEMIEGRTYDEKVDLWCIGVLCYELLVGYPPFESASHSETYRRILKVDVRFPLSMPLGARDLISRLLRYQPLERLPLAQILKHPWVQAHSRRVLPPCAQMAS

Aurora kinases (AKs) B, sequence (Q96GD4 whole entry): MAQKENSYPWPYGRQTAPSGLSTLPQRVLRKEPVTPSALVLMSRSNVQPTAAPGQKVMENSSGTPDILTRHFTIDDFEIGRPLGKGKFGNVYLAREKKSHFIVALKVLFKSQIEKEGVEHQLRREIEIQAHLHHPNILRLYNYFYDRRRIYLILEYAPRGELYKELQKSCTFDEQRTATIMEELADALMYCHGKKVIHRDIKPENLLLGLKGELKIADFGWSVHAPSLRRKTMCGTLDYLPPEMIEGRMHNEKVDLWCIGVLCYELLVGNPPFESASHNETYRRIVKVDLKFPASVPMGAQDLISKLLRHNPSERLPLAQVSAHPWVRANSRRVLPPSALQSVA

CO[C@@H](C(=O)N1Cc2n[nH]c(NC(=O)c3ccc(N4CCN(C)CC4)cc3)c2C1)c1ccccc1 [Compound 1, N-{5-[(2R)-2-methoxy-2-phenylethanoyl]-1,4,5,6-tetrahydropyrrolo[3,4-c]pyrazol-3-yl}-4-(4-methylpiperazin-1-yl)benzamide]
clearance ([1]; human, in vivo): 5 to 7.5 mL/min/kg
half-life ([1]; human, in vivo, read-out: terminal half-life): 18 to 30 h
pharmacokinetic behavior [1]: dose-proportional and time-independent behavior
pharmacokinetic linearity and variability [1]: linear with low inter-individual variability
volume of distribution [1]: 2-4 times total body water
uncomplicated grade 3 neutropenia ([2]; 250 mg/m^2): frequently reported
drug-related deaths ([2]; 45 to 400 mg/m^2): No drug-related deaths
hematological toxicity reported ([2]; 45 to 400 mg/m^2, 6-hours IV infusion days 1, 8, 15 every 28 days): Uncomplicated neutropenia of short duration
drug-related non hematological toxicities, severity ([2]; G1/G2 diarrhea, nausea, vomiting, fatigue, anorexia and blood pressure increase): mild or moderate
number of patients with stable disease as best response ([2]; forty patients treated): Seven
number of stable-disease patients with response lasting more than seven months ([2]; of the seven patients with stable disease): four
MTD (exceeded at 650 and 580 mg/m^2) ([3]; 24 h iv infusion every two weeks): < 580 mg/m^2
number of pts with stable disease as best response ([3]; forty patients enrolled): Nine
recommended dose for Phase II ([3]; human, in vivo, iv): 500 mg/m^2
dose-limiting toxicity ([3]; in vivo, iv): Neutropenia
non-hematological drug related adverse events, severity ([3]; in vivo, iv): mild or moderate
number of stable-disease pts with response duration >6 months ([3]; of the nine pts with stable disease): 3
inhibitory potency towards Aurora kinase A (Aurora kinases (AKs) A): significant inhibitory potency
tolerability of regimen [4]: well tolerated
dose at which inhibition of histone H3 phosphorylation (biomarker modulation) was evident [5]: ≥ 500 mg/m^2
inhibitory potency towards Aurora kinase B (Aurora kinases (AKs) B): significant inhibitory potency
inhibitory potency towards Aurora kinase C (Aurora kinases (AKs) C): significant inhibitory potency
